Experimental data taken from PMC6382696, “Drug Repurposing: The Anthelmintics Niclosamide and Nitazoxanide Are Potent TMEM16A Antagonists That Fully Bronchodilate Airways” (Frontiers in Pharmacology, 2019).
Values joined by “and” are separate entries in the source; they are usually repeats but may differ in a detail not shown here. Equal values may be shown once. Read-outs that look alike come from different tables or passages of the source.

Target: T1, hTMEM16A (abc) (Homo sapiens, UniProt Q5XXA6, DEL476-501)
T1 sequence (Q5XXA6 with tags, fused parts or gaps isoform Q5XXA6-5 DEL539-564): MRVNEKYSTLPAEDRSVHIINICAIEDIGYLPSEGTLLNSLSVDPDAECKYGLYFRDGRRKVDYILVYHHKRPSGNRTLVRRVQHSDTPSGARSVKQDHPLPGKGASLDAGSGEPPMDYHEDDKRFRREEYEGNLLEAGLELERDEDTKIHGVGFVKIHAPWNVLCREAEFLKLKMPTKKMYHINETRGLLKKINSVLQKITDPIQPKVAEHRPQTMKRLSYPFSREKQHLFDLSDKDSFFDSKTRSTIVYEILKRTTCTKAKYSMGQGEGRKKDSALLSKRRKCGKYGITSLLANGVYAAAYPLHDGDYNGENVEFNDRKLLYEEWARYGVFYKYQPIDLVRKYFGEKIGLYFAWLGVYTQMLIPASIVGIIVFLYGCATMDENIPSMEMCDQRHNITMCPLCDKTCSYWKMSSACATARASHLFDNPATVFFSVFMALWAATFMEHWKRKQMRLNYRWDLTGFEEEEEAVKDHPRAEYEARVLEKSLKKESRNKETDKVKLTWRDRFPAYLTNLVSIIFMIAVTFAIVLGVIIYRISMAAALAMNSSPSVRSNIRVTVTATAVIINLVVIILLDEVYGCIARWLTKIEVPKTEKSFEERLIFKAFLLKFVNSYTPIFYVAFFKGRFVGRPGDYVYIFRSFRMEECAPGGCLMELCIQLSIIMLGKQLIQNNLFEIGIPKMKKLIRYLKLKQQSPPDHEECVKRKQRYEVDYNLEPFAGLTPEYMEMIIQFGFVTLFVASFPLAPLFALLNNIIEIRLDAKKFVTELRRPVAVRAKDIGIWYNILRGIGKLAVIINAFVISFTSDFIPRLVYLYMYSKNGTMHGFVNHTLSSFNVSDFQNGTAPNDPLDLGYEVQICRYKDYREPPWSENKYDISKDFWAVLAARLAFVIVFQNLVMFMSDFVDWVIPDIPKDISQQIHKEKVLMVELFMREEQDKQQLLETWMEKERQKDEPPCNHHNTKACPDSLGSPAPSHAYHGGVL
Assay: medchem TMEM16A halide-sensitive YFP assay, 22-point dose-response
Format: cell-based
Design: expressed in transfected cells
Conditions: for scope of block of ionomycin-induced iodide eYFP quenching: up to 55.6 μM
Summary of the method: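 HEK293T stably expressing eYFP (H149Q, I153L) and hTMEM16A(abc), preincubated 30 min at room temperature with compound in HBSS/10 mM HEPES pH 7.4.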

[1] = average, 22-point dose-response, iodide as permeant anion, read-out: TMEM16A eYFP Assay (IC50)
[2] = supplement, iodide as permeant anion, maximum concentration 55.6, read-out: TMEM16A eYFP Assay IC50

SMILES | IC50 [1] | IC50 [2] [µM] | scope of block of ionomycin-induced iodide eYFP quenching | maximal percent inhibition in the TMEM16A/eYFP assay (iodide as permeant anion) [%] | times more potent than other antagonists in the halide-sensitive YFP assay (versus eight benchmark antagonists) | IC50 (TMEM16A eYFP Assay IC50, supplement, iodide as permeant anion, maximum concentration 55.6) [µM]
CCc1c(C)nc(SCC(=O)Nc2nc(-c3ccc(OC)cc3)cs2)[nH]c1=O [T16Ainh-A01] | > 50 µM | > 55.6 | inactive | – | – | –
O=C(Nc1ccc([N+](=O)[O-])cc1Cl)c1cc(Cl)ccc1O [Niclosamide] | 0.13 µM and 0.132 µM | 0.132 ± 0.0671 | only partial inhibition | 62.4 ± 12.0 | 10–200 times | –
O=C(O)c1cccnc1Nc1cccc(C(F)(F)F)c1 [Niflumic Acid] | 26.6 ± 11.8 µM | – | – | – | – | –
O=C(Nc1ccc([N+](=O)[O-])cc1)c1cc(Cl)ccc1O [Cpd 2] | – | – | only partially inhibited | – | – | –
O=C(Nc1ccc(Cl)cc1)c1cc(Cl)ccc1O [Cpd 5] | 0.37 ± 0.131 µM | 0.37 ± 0.131 | only partially inhibited | – | – | –
Oc1ccc(Cl)cc1Cc1cc(Cl)ccc1O [Dichlorophen] | 4.37 ± 1.21 µM | 4.36 ± 1.21 | fully inhibited | – | – | –
O=C(Nc1ncc([N+](=O)[O-])s1)c1cccs1 [NTTP] | 2.48 ± 1.24 µM | – | – | – | – | –
O=C(Nc1ncc([N+](=O)[O-])s1)c1ccccc1O [Tizoxanide] | 0.398 µM | – | partially inhibiting | – | – | –
COc1cc(Nc2ccc([N+](=O)[O-])cc2C(=O)O)cc2ccccc12 [MONNA] | 6.29 ± 1.47 µM | 6.29 ± 1.47 | fully inhibited | – | – | –
CCc1oc2ccccc2c1C(=O)c1cc(Br)c(O)c(Br)c1 [Benzbromarone] | 1.51 ± 0.504 µM | – | fully inhibited | – | – | 1.51 ± 0.504
COc1cc([N+](=O)[O-])ccc1NC(=O)c1cc(Cl)c2ccccc2c1O [Cpd 4] | 0.901 ± 0.524 µM | 0.954 ± 0.648 | only partial inhibition | – | – | –
O=C(Nc1ccc([N+](=O)[O-])cc1)c1cc(Cl)c2ccccc2c1O [Cpd 3] | 0.184 ± 0.089 µM | – | only partially inhibited | – | – | –
N#Cc1c(C(F)(F)F)cc(O)n2c1nc1ccccc12 [1PBC] | 1.52 ± 1.36 µM | 1.52 ± 1.36 | only partial inhibition | – | – | –
